The source of these data is doi:10.1101/2024.08.19.608619, “Discovery of potent SARS-CoV-2 nsp3 macrodomain inhibitors uncovers lack of translation to cellular antiviral response” (bioRxiv, 2024).

Like-named read-outs stand apart in the source and are kept apart here.

Assay [1] concerns the target T1, SARS-CoV-2 nsp3-mac1 (Severe acute respiratory syndrome coronavirus 2, UniProt P0DTD1). The assay is described as follows: biochemical. The assay is classed as biochemical. The note with it: SARS-CoV-2 nsp3 macrodomain TR-FRET single point.
Assay [2] has as its target T1, SARS-CoV-2 nsp3-mac1. The assay is described as follows: biochemical. Also on record: SARS-CoV-2 nsp3 macrodomain TR-FRET single point, per cent inhibition, n=2.
Setting [3] is: read-out: perc_inhibition_mean, batch_name=ASAP-0000365-001.
[4] abbreviates: read-out: perc_inhibition_mean, batch_name=ASAP-0000366-001.
Where [5] appears, read: read-out: perc_inhibition_mean, batch_name=ASAP-0000380-001.
Setting [6] is: read-out: perc_inhibition_mean, batch_name=ASAP-0000381-001.
Where [7] appears, read: read-out: perc_inhibition_mean, batch_name=ASAP-0000382-001.
[8] abbreviates: read-out: perc_inhibition_mean, batch_name=ASAP-0000383-001.
Where [9] appears, read: read-out: perc_inhibition_mean, batch_name=ASAP-0000384-001.
The mark [10] stands for this setting: read-out: perc_inhibition_mean, batch_name=ASAP-0000385-001.
[11] abbreviates: read-out: perc_inhibition_mean, batch_name=ASAP-0000386-001.
[12] abbreviates: read-out: perc_inhibition_mean, batch_name=ASAP-0000387-001.
Where [13] appears, read: read-out: perc_inhibition_mean, batch_name=ASAP-0000388-001.
Setting [14] is: read-out: perc_inhibition_mean, batch_name=ASAP-0000389-001.
Where [15] appears, read: read-out: perc_inhibition_mean, batch_name=ASAP-0000390-001.
Where [16] appears, read: read-out: perc_inhibition_mean, batch_name=ASAP-0000391-001.

As to `Cc1ccc2ccccc2c1-c1ncnc2[nH]ccc12` [ASAP-0000365], the perc_inhibition_mean at SARS-CoV-2 nsp3-mac1 [1] (concentration 49.75 uM) is reported as -5.321%. Besides, the perc_inhibition_mean on SARS-CoV-2 nsp3-mac1 [1] (concentration 99.5 uM) was -9.099%. Further, at SARS-CoV-2 nsp3-mac1 [2] (setting [3]), the inhibition at 49.75 µM is -5.32% and the inhibition at 99.5 µM is -9.1%.

Take `COc1cc(CC(=O)Nc2cc3c(=O)nc[nH]c3cn2)on1` [ASAP-0000366]: the figures for the perc_inhibition_mean at SARS-CoV-2 nsp3-mac1 [1] (concentration 49.75 uM) and at SARS-CoV-2 nsp3-mac1 [1] (concentration 99.5 uM) were -4.691% and -3.481%, respectively. Further, at SARS-CoV-2 nsp3-mac1 [2] (setting [4]), the inhibition at 49.75 µM was -4.69%. Also, on SARS-CoV-2 nsp3-mac1 [2] (setting [4]), the inhibition at 99.5 µM is -3.48%.

In the case of `Cn1cc([C@@H](Nc2ncnc3[nH]ccc23)c2ccccc2)cn1` [ASAP-0000380], the perc_inhibition_mean at SARS-CoV-2 nsp3-mac1 [1] (concentration 49.75 uM) turned out to be 19.983%. For the same molecule, the perc_inhibition_mean on SARS-CoV-2 nsp3-mac1 [1] (concentration 99.5 uM) was found to be 39.262%. Further, at SARS-CoV-2 nsp3-mac1 [2] (setting [5]), the inhibition at 49.75 µM is 20% and the inhibition at 99.5 µM is 39.3%.

Consider `Cc1nn(C)c(C)c1[C@H]1COCCN1c1ncnc2[nH]ccc12` [ASAP-0000381], for which the perc_inhibition_mean at SARS-CoV-2 nsp3-mac1 [1] (concentration 49.75 uM) was -0.137%. In addition, the perc_inhibition_mean at SARS-CoV-2 nsp3-mac1 [1] (concentration 99.5 uM) is listed as -0.128%. On SARS-CoV-2 nsp3-mac1 [2] (setting [6]), the inhibition at 49.75 µM is -0.137% and the inhibition at 99.5 µM was -0.128%.

For the molecule `O=C(c1cncc(O)n1)N1CCC(c2ccn3ncc(C(=O)N4CCCCC4)c3c2)CC1` [ASAP-0000382], the perc_inhibition_mean on SARS-CoV-2 nsp3-mac1 [1] (concentration 49.75 uM) amounted to 26.617%. The perc_inhibition_mean on SARS-CoV-2 nsp3-mac1 [1] (concentration 99.5 uM) is reported as 41.906%. Further, at SARS-CoV-2 nsp3-mac1 [2] (setting [7]), the inhibition at 49.75 µM stood at 26.6% and the inhibition at 99.5 µM came to 41.9%.

As for `O=C(c1c[nH]c(=O)cn1)N1CCC(c2ccn3ncc(C(=O)N4CCCCC4)c3c2)CC1` [ASAP-0000383], at SARS-CoV-2 nsp3-mac1 [1] (concentration 49.75 uM), the perc_inhibition_mean is on record as -49.044%. In addition, the perc_inhibition_mean at SARS-CoV-2 nsp3-mac1 [1] (concentration 99.5 uM) is given as 45.826%. In addition, at SARS-CoV-2 nsp3-mac1 [2] (setting [8]), the inhibition at 49.75 µM is -49% and the inhibition at 99.5 µM worked out at 45.8%.

Consider `CC(C)[C@@H](Nc1ncnc2[nH]ccc12)c1nncn1C` [ASAP-0000384], for which the perc_inhibition_mean at SARS-CoV-2 nsp3-mac1 [1] (concentration 49.75 uM) is listed as 4.589%; on SARS-CoV-2 nsp3-mac1 [1] (concentration 99.5 uM), 10.829%. Also, the inhibition at 49.75 µM at SARS-CoV-2 nsp3-mac1 [2] (setting [9]) is 4.59%. Moreover, the inhibition at 99.5 µM at SARS-CoV-2 nsp3-mac1 [2] (setting [9]) stood at 10.8%.

Take `O=C(c1cnc2[nH]ncc2c1)N1CCC(c2ccn3ncc(C(=O)N4CCCCC4)c3c2)CC1` [ASAP-0000385]: the perc_inhibition_mean on SARS-CoV-2 nsp3-mac1 [1] (concentration 49.75 uM) stood at 15.807%. The perc_inhibition_mean on SARS-CoV-2 nsp3-mac1 [1] (concentration 99.5 uM) came out at 34.368%. Besides, at SARS-CoV-2 nsp3-mac1 [2] (setting [10]), the inhibition at 49.75 µM stood at 15.8% and the inhibition at 99.5 µM is 34.4%.

Take `NC(=O)c1ncccc1C(=O)N1CCC(c2ccn3ncc(C(=O)N4CCCCC4)c3c2)CC1` [ASAP-0000386]: the perc_inhibition_mean on SARS-CoV-2 nsp3-mac1 [1] (concentration 49.75 uM) amounted to 19.978%; on SARS-CoV-2 nsp3-mac1 [1] (concentration 99.5 uM), 36.045%. Further, on SARS-CoV-2 nsp3-mac1 [2] (setting [11]), the inhibition at 49.75 µM amounted to 20%. Moreover, on SARS-CoV-2 nsp3-mac1 [2] (setting [11]), the inhibition at 99.5 µM worked out at 36%.

As for `Cc1cc(C(=O)N2CCC(c3ccn4ncc(C(=O)N5CCCCC5)c4c3)CC2)[nH]n1` [ASAP-0000387], the perc_inhibition_mean was found to be 16.559% on SARS-CoV-2 nsp3-mac1 [1] (concentration 49.75 uM) and 31.572% at SARS-CoV-2 nsp3-mac1 [1] (concentration 99.5 uM). Also, the inhibition at 49.75 µM at SARS-CoV-2 nsp3-mac1 [2] (setting [12]) amounted to 16.6%. Moreover, the inhibition at 99.5 µM on SARS-CoV-2 nsp3-mac1 [2] (setting [12]) was found to be 31.6%.

`Cc1cc(N)ncc1C(=O)N1CCC(c2ccn3ncc(C(=O)N4CCCCC4)c3c2)CC1` [ASAP-0000388]: on SARS-CoV-2 nsp3-mac1 [1] (concentration 49.75 uM), the perc_inhibition_mean came out at 19.535%. The perc_inhibition_mean on SARS-CoV-2 nsp3-mac1 [1] (concentration 99.5 uM) is 32.615%. Besides, at SARS-CoV-2 nsp3-mac1 [2] (setting [13]), the inhibition at 49.75 µM is 19.5% and the inhibition at 99.5 µM came out at 32.6%.

For the molecule `O=C(c1cccnc1S)N1CCC(c2ccn3ncc(C(=O)N4CCCCC4)c3c2)CC1` [ASAP-0000389], at SARS-CoV-2 nsp3-mac1 [1] (concentration 49.75 uM), the perc_inhibition_mean stood at 32.298%. Besides, the perc_inhibition_mean at SARS-CoV-2 nsp3-mac1 [1] (concentration 99.5 uM) was 52.653%. For the same molecule, on SARS-CoV-2 nsp3-mac1 [2] (setting [14]), the inhibition at 49.75 µM worked out at 32.3% and the inhibition at 99.5 µM stood at 52.7%.

Regarding `Cc1nc(C(=O)N2CCC(c3ccn4ncc(C(=O)N5CCCCC5)c4c3)CC2)c(C)[nH]1` [ASAP-0000390], the perc_inhibition_mean at SARS-CoV-2 nsp3-mac1 [1] (concentration 49.75 uM) is given as 16.798%; at SARS-CoV-2 nsp3-mac1 [1] (concentration 99.5 uM), 27.519%. In addition, on SARS-CoV-2 nsp3-mac1 [2] (setting [15]), the inhibition at 49.75 µM was determined as 16.8%. Also, the inhibition at 99.5 µM on SARS-CoV-2 nsp3-mac1 [2] (setting [15]) was 27.5%.

Consider `CN1CCO[C@@H](CNC(=O)c2cnn3ccc(C4CCN(C(=O)c5ccccc5)CC4)cc23)C1` [ASAP-0000391], for which the perc_inhibition_mean at SARS-CoV-2 nsp3-mac1 [1] (concentration 49.75 uM) was -12.021%. Further, at SARS-CoV-2 nsp3-mac1 [1] (concentration 99.5 uM), the perc_inhibition_mean was -11.503%. Besides, at SARS-CoV-2 nsp3-mac1 [2] (setting [16]), the inhibition at 49.75 µM was -12% and the inhibition at 99.5 µM was -11.5%.
